# Data published in US20250230193A1, “CYCLIC COMPOUND HAVING SELECTIVE KRAS INHIBITORY EFFECT ON HRAS AND NRAS” (CHUGAI SEIYAKU KABUSHIKI KAISHA, priority 2022, published 2025).
# Key:
# [1] = target: GDP-bound NRAS wild-type protein (Homo sapiens, UniProt P01111); test: Binding to NRAS by surface plasmon resonance (SPR), Single Cycle Kinetics; details: SPR; KD ratio class
# [2] = target: GDP-bound HRAS wild-type protein (Homo sapiens, UniProt P01112); test: Binding to HRAS by surface plasmon resonance (SPR), Single Cycle Kinetics; details: SPR; KD ratio class
# GDP-bound HRAS wild-type protein, sequence (P01112 whole entry): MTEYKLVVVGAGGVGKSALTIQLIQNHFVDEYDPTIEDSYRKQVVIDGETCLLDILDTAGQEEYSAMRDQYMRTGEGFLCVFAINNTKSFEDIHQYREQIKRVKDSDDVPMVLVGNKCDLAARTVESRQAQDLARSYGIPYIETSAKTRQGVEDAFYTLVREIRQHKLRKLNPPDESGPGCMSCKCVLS
# [3] = test system: human lung cancer strain NCI-H441; test: cells; details: NCI-H441, 96 h, read-out: NCI-H441 IC50 (nM)
# GDP-bound NRAS wild-type protein, sequence (P01111 whole entry): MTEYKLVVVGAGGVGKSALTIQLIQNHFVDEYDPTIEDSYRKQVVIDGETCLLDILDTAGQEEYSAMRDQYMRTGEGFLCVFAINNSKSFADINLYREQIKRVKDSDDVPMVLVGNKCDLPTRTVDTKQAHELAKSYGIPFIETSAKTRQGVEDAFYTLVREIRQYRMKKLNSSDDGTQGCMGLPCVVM
Compound,IC50 [3] [nM],NRAS/KRAS (ratio of KD value for GDP-bound NRAS wild-type protein to KD value for KRAS) [1],HRAS/KRAS (ratio of KD value for GDP-bound HRAS wild-type protein to KD value for KRAS) [2]
CCO[C@@H]1C[C@H]2C(=O)NC3(CCC3)C(=O)N(C)[C@@H](C3CCCC3)C(=O)N(C)[C@H](C(=O)N(C)C)CC(=O)N(C)[C@@H](CC(C)C)C(=O)N[C@@H]([C@@H](C)CC)C(=O)N(C)CC(=O)N(C)[C@H]3C/C=C\CCN(C3=O)[C@@H](Cc3ccc(F)cc3)C(=O)N(C)CC(=O)N[C@@H](CCc3ccc4sccc4c3)C(=O)N2C1 [PP1427],465,A (a compound having 10 or more and less than 20 is denoted as A),B (a compound having 3 or more and less than 10 is denoted as B)
CC[C@H](C)[C@@H]1NC(=O)[C@H](CC2CC2)N(C)C(=O)C[C@@H](C(=O)N(C)C)N(C)C(=O)[C@H](C2CCCC2)N(C)C(=O)C2(CCCC2)NC(=O)[C@@H]2CCCN2C(=O)[C@H](CCc2ccc(C(F)(F)F)c(Cl)c2)NC(=O)CN(C)C(=O)[C@H](Cc2ccc(C(F)(F)F)cc2)N2C[C@H](C)CC[C@@H](C2=O)N(C)C(=O)CN(C)C1=O [PP1346],7.2,B (a compound having 3 or more and less than 10 is denoted as B),B (a compound having 3 or more and less than 10 is denoted as B)
CCO[C@@H]1C[C@H]2C(=O)NC3(CCC3)C(=O)N(C)[C@@H](C(CC)CC)C(=O)N(C)[C@H](C(=O)N3CCCC3)CC(=O)N(C)[C@@H](COC)C(=O)N[C@@H]([C@@H](C)CC)C(=O)N(C)CC(=O)N(C)[C@H]3C/C=C\CCN(C3=O)[C@@H](CC3CCC(F)(F)CC3)C(=O)N(C)CC(=O)N[C@@H](CCc3cc(F)c(C(F)(F)F)c(F)c3)C(=O)N2C1 [PP1440],69.7,AA (a compound having 20 or more is denoted as AA),A (a compound having 10 or more and less than 20 is denoted as A)
CCO[C@@H]1C[C@H]2C(=O)NC3(CCCC3)C(=O)N(C)[C@@H](C3CCCC3)C(=O)N(C)[C@H](C(=O)N(C)C)CC(=O)N(C)[C@@H](CC)C(=O)N[C@@H]([C@@H](C)CC)C(=O)N(C)CC(=O)N(C)[C@H]3C[C@@H](C)[C@@H](C)CN(C3=O)[C@@H](Cc3ccc(C(F)(F)F)cc3)C(=O)N(C)CC(=O)N[C@@H](CCc3ccc(C(F)(F)F)c(Cl)c3)C(=O)N2C1 [PP1358],4.1,A (a compound having 10 or more and less than 20 is denoted as A),B (a compound having 3 or more and less than 10 is denoted as B)
CC[C@H](C)[C@@H]1NC(=O)[C@H](CC)N(C)C(=O)C[C@@H](C(=O)N(C)C)N(C)C(=O)[C@H](C2CCCC2)N(C)C(=O)C2(CCCC2)NC(=O)[C@@H]2CCCN2C(=O)[C@H](CCc2ccc(C(F)(F)F)c(Cl)c2)NC(=O)CN(C)C(=O)[C@H](Cc2ccc(C(F)(F)F)cc2)N2C[C@H](C)CC[C@@H](C2=O)N(C)C(=O)CN(C)C1=O [PP1336],10.8,B (a compound having 3 or more and less than 10 is denoted as B),B (a compound having 3 or more and less than 10 is denoted as B)
CCO[C@@H]1C[C@H]2C(=O)NC3(CCC3)C(=O)N(C)[C@@H](C(CC)CC)C(=O)N(C)[C@H](C)CC(=O)N(C)[C@@H](CC(C)C)C(=O)N[C@@H]([C@@H](C)CC)C(=O)N(C)CC(=O)N(C)[C@H]3C/C=C\CCN(C3=O)[C@@H](Cc3ccc(F)cc3C)C(=O)N(C)CC(=O)N[C@@H](CCc3cc(F)c(C(F)(F)F)c(F)c3)C(=O)N2C1 [PP1524],439,B (a compound having 3 or more and less than 10 is denoted as B),B (a compound having 3 or more and less than 10 is denoted as B)
CCO[C@@H]1C[C@H]2C(=O)NC3(CCC3)C(=O)N(C)[C@@H](C3CCCC3)C(=O)N(C)[C@H](C(=O)N3CCOCC3)CC(=O)N(C)[C@@H](CC)C(=O)N[C@@H]([C@@H](C)CC)C(=O)N(C)CC(=O)N(C)[C@H]3C[C@@H](C)[C@@H](C)CN(C3=O)[C@@H](Cc3ccc(C(F)(F)F)cc3)C(=O)N(C)CC(=O)N[C@@H](CCc3ccc(C(F)(F)F)c(Cl)c3)C(=O)N2C1 [PP1360],4.9,A (a compound having 10 or more and less than 20 is denoted as A),B (a compound having 3 or more and less than 10 is denoted as B)
CCO[C@@H]1C[C@H]2C(=O)NC3(CCC3)C(=O)N(C)[C@@H](C3CCCC3)C(=O)N(C)[C@H](C(=O)N3CCOCC3)CC(=O)N(C)[C@@H](CC(C)C)C(=O)N[C@@H]([C@@H](C)CC)C(=O)N3CC[C@H]3C(=O)N(C)[C@H]3CC[C@@H](C)CN(C3=O)[C@@H](Cc3ccc(C(F)(F)F)cc3)C(=O)N(C)CC(=O)N[C@@H](CCc3cc(F)c(C(F)(F)F)c(F)c3)C(=O)N2C1 [PP1373],12.2,B (a compound having 3 or more and less than 10 is denoted as B),B (a compound having 3 or more and less than 10 is denoted as B)

# Further lines, with some results ahead:
IC50 [3] [nM],Compound,NRAS/KRAS (ratio of KD value for GDP-bound NRAS wild-type protein to KD value for KRAS) [1],HRAS/KRAS (ratio of KD value for GDP-bound HRAS wild-type protein to KD value for KRAS) [2]
78.6,CCO[C@@H]1C[C@H]2C(=O)NC3(CCC3)C(=O)N(C)[C@@H](C3CCCC3)C(=O)N(C)[C@H](C(C)C)CC(=O)N(C)[C@@H](CC)C(=O)N[C@@H]([C@@H](C)CC)C(=O)N(C)CC(=O)N(C)[C@H]3C/C=C\CCN(C3=O)[C@@H](CC3CCCCC3)C(=O)N(C)CC(=O)N[C@@H](CCc3cc(F)c(C(F)(F)F)c(F)c3)C(=O)N2C1 [PP1601],B (a compound having 3 or more and less than 10 is denoted as B),A (a compound having 10 or more and less than 20 is denoted as A)
48.9,CC[C@H](C)[C@@H]1NC(=O)[C@H](CC)N(C)C(=O)C[C@@H](C(=O)N(C)C)N(C)C(=O)[C@H](C2CCCC2)N(C)C(=O)C2(CCC2)NC(=O)[C@@H]2CCCN2C(=O)[C@H](CCc2cc(F)c(C(F)(F)F)c(F)c2)NC(=O)CN(C)C(=O)[C@H](CC2CCCCC2)N2CC/C=C\C[C@@H](C2=O)N(C)C(=O)CN(C)C1=O [PP1475],A (a compound having 10 or more and less than 20 is denoted as A),A (a compound having 10 or more and less than 20 is denoted as A)
17.2,CCO[C@@H]1C[C@H]2C(=O)NC3(CCC3)C(=O)N(C)[C@@H](C3CCCC3)C(=O)N(C)[C@H](C(=O)N(C)C)CC(=O)N(C)[C@@H](CC3CCCC3)C(=O)N[C@@H]([C@@H](C)CC)C(=O)N(C)CC(=O)N(C)[C@H]3C/C=C\CCN(C3=O)[C@@H](Cc3ccc(F)cc3C)C(=O)N(C)CC(=O)N[C@@H](CCc3cc(F)c(C(F)(F)F)c(F)c3)C(=O)N2C1 [PP1530],A (a compound having 10 or more and less than 20 is denoted as A),B (a compound having 3 or more and less than 10 is denoted as B)
72.6,CCO[C@@H]1C[C@H]2C(=O)NC3(CCOCC3)C(=O)N(C)[C@@H](C3CCCC3)C(=O)N(C)[C@H](C(=O)N(C)C)CC(=O)N(C)[C@@H](CC)C(=O)N[C@@H]([C@@H](C)CC)C(=O)N(C)CC(=O)N(C)[C@H]3C/C=C\CCN(C3=O)[C@@H](Cc3ccc(C(F)(F)F)cc3)C(=O)N(C)CC(=O)N[C@@H](CCc3cc(F)c(C(F)(F)F)c(F)c3)C(=O)N2C1 [PP1279],A (a compound having 10 or more and less than 20 is denoted as A),A (a compound having 10 or more and less than 20 is denoted as A)
45.6,CCO[C@@H]1C[C@H]2C(=O)NC3(CCC3)C(=O)N(C)[C@@H](C3CCCC3)C(=O)N(C)[C@H](C(=O)N(C)C)CC(=O)N(C)[C@@H](CC3CC3)C(=O)N[C@@H]([C@@H](C)CC)C(=O)N(C)CC(=O)N(C)[C@H]3C/C=C\CCN(C3=O)[C@@H](Cc3ccc(F)cc3C)C(=O)N(C)CC(=O)N[C@@H](CCc3cc(F)c(C(F)(F)F)c(F)c3)C(=O)N2C1 [PP1528],A (a compound having 10 or more and less than 20 is denoted as A),B (a compound having 3 or more and less than 10 is denoted as B)
54.8,CCO[C@@H]1C[C@H]2C(=O)NC3(CCC3)C(=O)N(C)[C@@H](C3CCCC3)C(=O)N(C)[C@H](C(=O)N3CCOCC3)CC(=O)N(C)[C@@H](C)C(=O)N[C@@H]([C@@H](C)CC)C(=O)N(C)CC(=O)N(C)[C@H]3C/C=C\CCN(C3=O)[C@@H](Cc3ccc(C(F)(F)F)cc3)C(=O)N(C)CC(=O)N[C@@H](CCc3cc(F)c(C(F)(F)F)c(F)c3)C(=O)N2C1 [PP1284],AA (a compound having 20 or more is denoted as AA),A (a compound having 10 or more and less than 20 is denoted as A)
33.6,CCO[C@@H]1C[C@H]2C(=O)NC3(CCC3)C(=O)N(C)[C@@H](C(CC)CC)C(=O)N(C)[C@H](C(=O)N(C)C)CC(=O)N(C)[C@@H](CC3CCCC3)C(=O)N[C@@H]([C@@H](C)CC)C(=O)N(C)CC(=O)N(C)[C@H]3C/C=C\CCN(C3=O)[C@@H](Cc3ccc(F)cc3)C(=O)N(C)CC(=O)N[C@@H](CCc3cc(F)c(C(F)(F)F)c(F)c3)C(=O)N2C1 [PP1517],A (a compound having 10 or more and less than 20 is denoted as A),A (a compound having 10 or more and less than 20 is denoted as A)
